Experimental data: ChEMBL document CHEMBL3351767, “The discovery of Polo-like kinase 4 inhibitors: design and optimization of spiro[cyclopropane-1,3'[3H]indol]-2'(1'H).ones as orally bioavailable antitumor agents” (J Med Chem, 2015)
Converted amounts (≈) assume the structure as drawn.

How the values were obtained:
[1] = biological target: T1, Serine/threonine-protein kinase PLK4 (Homo sapiens, UniProt O00444); assay: Inhibition of human N-terminal GST-tagged PLK4 (1 to 391 residues) expressed in Escherichia coli incubated for 30 mins by ELISA method
T1 sequence (O00444 whole entry): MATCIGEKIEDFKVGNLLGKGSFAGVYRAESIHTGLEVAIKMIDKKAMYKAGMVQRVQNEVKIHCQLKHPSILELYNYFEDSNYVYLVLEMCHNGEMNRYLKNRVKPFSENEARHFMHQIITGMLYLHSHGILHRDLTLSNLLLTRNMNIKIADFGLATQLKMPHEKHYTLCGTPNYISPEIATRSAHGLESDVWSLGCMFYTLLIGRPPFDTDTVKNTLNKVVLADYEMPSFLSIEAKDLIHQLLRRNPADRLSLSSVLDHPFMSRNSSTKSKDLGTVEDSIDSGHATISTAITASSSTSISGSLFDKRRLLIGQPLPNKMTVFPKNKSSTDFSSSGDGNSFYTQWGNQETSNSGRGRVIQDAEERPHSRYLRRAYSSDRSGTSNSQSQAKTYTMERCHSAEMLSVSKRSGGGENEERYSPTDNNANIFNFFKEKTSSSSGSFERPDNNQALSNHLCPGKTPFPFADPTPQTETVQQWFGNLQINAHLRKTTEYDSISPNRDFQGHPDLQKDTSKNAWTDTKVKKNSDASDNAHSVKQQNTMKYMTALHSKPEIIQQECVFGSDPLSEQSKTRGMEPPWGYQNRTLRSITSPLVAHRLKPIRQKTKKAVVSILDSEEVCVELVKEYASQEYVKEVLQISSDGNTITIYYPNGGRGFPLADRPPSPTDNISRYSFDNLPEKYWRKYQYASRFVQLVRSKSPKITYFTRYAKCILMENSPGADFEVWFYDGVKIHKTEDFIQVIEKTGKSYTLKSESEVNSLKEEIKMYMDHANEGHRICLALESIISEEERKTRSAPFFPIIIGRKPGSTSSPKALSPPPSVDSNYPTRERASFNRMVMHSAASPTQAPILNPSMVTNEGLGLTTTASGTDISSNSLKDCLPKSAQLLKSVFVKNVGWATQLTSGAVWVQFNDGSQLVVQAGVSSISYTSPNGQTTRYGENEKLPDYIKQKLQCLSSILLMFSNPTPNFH

[2] = biological target: T2, Receptor-type tyrosine-protein kinase FLT3 (Homo sapiens, UniProt P36888); assay: Inhibition of FLT3 (unknown origin) by FRET-based homogeneous assay
T2 sequence (P36888 whole entry): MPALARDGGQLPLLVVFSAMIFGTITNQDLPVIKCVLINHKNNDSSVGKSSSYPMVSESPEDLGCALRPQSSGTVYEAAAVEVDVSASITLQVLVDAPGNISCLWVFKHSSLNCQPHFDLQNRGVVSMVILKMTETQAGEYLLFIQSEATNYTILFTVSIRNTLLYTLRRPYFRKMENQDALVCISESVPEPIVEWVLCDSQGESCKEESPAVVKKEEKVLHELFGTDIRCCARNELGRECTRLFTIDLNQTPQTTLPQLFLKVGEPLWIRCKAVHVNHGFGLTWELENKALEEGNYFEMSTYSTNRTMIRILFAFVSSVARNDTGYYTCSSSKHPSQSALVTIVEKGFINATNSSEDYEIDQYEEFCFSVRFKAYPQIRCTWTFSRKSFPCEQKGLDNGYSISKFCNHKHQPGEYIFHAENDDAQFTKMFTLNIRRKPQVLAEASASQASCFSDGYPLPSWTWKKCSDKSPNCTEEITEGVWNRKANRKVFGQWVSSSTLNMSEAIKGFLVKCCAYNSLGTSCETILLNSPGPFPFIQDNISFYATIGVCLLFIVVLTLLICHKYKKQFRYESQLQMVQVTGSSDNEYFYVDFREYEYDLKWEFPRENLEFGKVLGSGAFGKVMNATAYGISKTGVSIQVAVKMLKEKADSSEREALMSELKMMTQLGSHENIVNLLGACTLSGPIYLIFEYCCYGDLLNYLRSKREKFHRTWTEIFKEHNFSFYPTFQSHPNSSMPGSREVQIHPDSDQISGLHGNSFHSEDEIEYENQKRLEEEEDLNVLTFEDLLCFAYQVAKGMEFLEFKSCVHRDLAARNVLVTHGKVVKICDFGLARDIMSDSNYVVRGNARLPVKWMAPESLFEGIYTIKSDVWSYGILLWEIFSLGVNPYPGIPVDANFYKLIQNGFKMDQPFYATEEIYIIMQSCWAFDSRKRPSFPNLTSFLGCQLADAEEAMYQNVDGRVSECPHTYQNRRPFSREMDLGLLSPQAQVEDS

[3] = biological target: Vascular endothelial growth factor receptor 2 (Homo sapiens, UniProt P35968); assay: Inhibition of KDR (unknown origin) by FRET-based homogeneous assay
CYP1A2 = biological target: T3, CYP1A2 (Homo sapiens, UniProt P05177); assay: (§1) Inhibition of CYP1A2 (unknown origin) using CEC substrate after 15 mins by fluorescence assay; assay type: ADME; details: probe CEC
T3 sequence (P05177 whole entry): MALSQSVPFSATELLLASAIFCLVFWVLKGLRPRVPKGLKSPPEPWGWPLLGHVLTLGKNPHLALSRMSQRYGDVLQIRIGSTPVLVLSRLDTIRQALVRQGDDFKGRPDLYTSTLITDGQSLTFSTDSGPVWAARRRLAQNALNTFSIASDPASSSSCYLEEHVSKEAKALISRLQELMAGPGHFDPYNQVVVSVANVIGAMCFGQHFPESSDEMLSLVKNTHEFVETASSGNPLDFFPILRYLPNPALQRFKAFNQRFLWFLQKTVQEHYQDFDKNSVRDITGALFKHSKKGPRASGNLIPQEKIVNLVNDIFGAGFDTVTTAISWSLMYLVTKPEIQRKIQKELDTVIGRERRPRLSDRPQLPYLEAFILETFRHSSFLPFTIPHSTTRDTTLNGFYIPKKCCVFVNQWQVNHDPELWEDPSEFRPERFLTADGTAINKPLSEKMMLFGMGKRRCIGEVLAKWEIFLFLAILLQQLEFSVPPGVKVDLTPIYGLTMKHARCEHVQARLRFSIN

Cytochrome P450 2D6 = Cytochrome P450 2D6 (Homo sapiens, UniProt P10635); assay: (§2) Inhibition of CYP2D6 (unknown origin) using AMMC substrate after 45 mins by fluorescence assay; assay type: ADME
Cytochrome P450 3A4 = Cytochrome P450 3A4 (Homo sapiens, UniProt P08684); assay: Inhibition of CYP3A4 (unknown origin) using BFC substrate after 30 mins by fluorescence assay; assay type: ADME
[4] = Aqueous solubility at pH 7.4; assay type: physicochemical; details: buffer
[5] = Protein binding in plasma (unknown origin); assay type: ADME, cell-free; details: read-out: PPB (converted)
[6] = Half life in mouse liver microsomes at 1 uM in presence of NADPH by LC-MS method; assay type: ADME
[7] = Half life in human liver microsomes at 1 uM in presence of NADPH by LC-MS method; assay type: ADME
[8] = Cmax in SCID mouse at 50 mg/kg, ip after 8 hrs by LCMS/MS method; assay type: ADME, organism-based; set-up: dose 50 mg/kg, route intraperitoneal; details: in vivo
[9] = biological target: Serine/threonine-protein kinase PLK1 (Homo sapiens, UniProt P53350); assay: Inhibition of PLK1 (unknown origin) by FRET-based homogeneous assay
[10] = biological target: Serine/threonine-protein kinase PLK2 (Homo sapiens, UniProt Q9NYY3); assay: Inhibition of PLK2 (unknown origin) by FRET-based homogeneous assay
[11] = biological target: Serine/threonine-protein kinase PLK3 (Homo sapiens, UniProt Q9H4B4); assay: Inhibition of PLK3 (unknown origin) by FRET-based homogeneous assay
Aurora kinase B = Aurora kinase B (Homo sapiens, UniProt Q96GD4); assay: Inhibition of AURKB (unknown origin) by FRET-based homogeneous assay
Cytochrome P450 2C9 = Cytochrome P450 2C9 (Homo sapiens, UniProt P11712); assay: Inhibition of CYP2C9 (unknown origin) using MFC substrate after 45 mins by fluorescence assay; assay type: ADME
MCF7 = assay: Cytotoxicity against human MCF7 cells after 5 days by SRB assay; assay type: functional; details: MCF7, 120 h
MDA-MB-468 [12] = assay: Cytotoxicity against human MDA-MB-468 cells after 5 days by SRB assay; assay type: functional; details: MDA-MB-468, 120 h
[13] = AUC in SCID mouse at 50 mg/kg, ip after 8 hrs by LCMS/MS method; assay type: ADME, organism-based; set-up: time < 8 hr, dose 50 mg/kg, route intraperitoneal; details: plasma
Cytochrome P450 2C19 = Cytochrome P450 2C19 (Homo sapiens, UniProt P33261); assay: Inhibition of CYP2C19 (unknown origin) using MFC substrate after 30 mins by fluorescence assay; assay type: ADME
CYP2D6 = CYP2D6 (Homo sapiens, UniProt P10635); assay: as §2; assay type: ADME; details: probe AMMC
MDA-MB-468 [14] = assay: Antitumor activity against human MDA-MB-468 cells xenografted in mouse assessed as tumor growth inhibition at 50 mg/kg, ip QD for 21 days; assay type: functional, organism-based; set-up: dose 50 mg/kg
Cytochrome P450 1A2 = biological target: T4, Cytochrome P450 1A2 (Homo sapiens, UniProt P05177); assay: as §1; assay type: ADME
T4 sequence (P05177 whole entry): T3 sequence (P05177 whole entry)

MDA-MB-231 = assay: Cytotoxicity against human MDA-MB-231 cells after 5 days by SRB assay; assay type: functional; details: MDA-MB-231, 120 h
[15] = Cytotoxicity against human SKBR3 cells after 5 days by SRB assay; assay type: functional; details: SK-BR-3, 120 h
[16] = Cmax in SCID mouse at 25 mg/kg, po by LCMS/MS method; assay type: ADME, organism-based; set-up: dose 25 mg/kg, route oral; details: in vivo
[17] = AUC in SCID mouse at 25 mg/kg, po by LCMS/MS method; assay type: ADME, organism-based; set-up: dose 25 mg/kg, route oral; details: plasma
Mus musculus = assay: Toxicity in human MDA-MB-468 cells xenografted mouse assessed as reduction in body weight at 25 mg/kg, po QD for 21 days; assay type: organism-based; set-up: dose 25 mg/kg, route oral; details: in vivo, 504 h

Sequence of Serine/threonine-protein kinase PLK2 (Q9NYY3 whole entry): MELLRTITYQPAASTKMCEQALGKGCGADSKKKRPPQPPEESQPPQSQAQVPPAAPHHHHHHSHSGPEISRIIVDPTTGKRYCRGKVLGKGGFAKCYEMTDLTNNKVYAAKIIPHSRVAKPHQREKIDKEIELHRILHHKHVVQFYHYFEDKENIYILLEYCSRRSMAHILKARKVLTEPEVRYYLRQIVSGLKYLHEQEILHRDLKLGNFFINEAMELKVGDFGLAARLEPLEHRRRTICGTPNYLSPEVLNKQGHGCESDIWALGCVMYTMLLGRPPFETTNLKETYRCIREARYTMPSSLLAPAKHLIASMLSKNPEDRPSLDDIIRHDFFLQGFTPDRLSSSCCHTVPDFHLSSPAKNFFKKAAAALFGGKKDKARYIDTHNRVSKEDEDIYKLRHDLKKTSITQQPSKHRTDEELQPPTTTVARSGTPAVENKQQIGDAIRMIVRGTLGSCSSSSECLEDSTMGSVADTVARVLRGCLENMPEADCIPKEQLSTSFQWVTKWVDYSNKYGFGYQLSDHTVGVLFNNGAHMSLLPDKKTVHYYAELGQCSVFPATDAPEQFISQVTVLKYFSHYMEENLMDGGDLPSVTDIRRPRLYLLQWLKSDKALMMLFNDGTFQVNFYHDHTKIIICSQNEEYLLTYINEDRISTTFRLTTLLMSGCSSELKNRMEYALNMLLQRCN
Sequence of Cytochrome P450 2D6 (P10635 whole entry): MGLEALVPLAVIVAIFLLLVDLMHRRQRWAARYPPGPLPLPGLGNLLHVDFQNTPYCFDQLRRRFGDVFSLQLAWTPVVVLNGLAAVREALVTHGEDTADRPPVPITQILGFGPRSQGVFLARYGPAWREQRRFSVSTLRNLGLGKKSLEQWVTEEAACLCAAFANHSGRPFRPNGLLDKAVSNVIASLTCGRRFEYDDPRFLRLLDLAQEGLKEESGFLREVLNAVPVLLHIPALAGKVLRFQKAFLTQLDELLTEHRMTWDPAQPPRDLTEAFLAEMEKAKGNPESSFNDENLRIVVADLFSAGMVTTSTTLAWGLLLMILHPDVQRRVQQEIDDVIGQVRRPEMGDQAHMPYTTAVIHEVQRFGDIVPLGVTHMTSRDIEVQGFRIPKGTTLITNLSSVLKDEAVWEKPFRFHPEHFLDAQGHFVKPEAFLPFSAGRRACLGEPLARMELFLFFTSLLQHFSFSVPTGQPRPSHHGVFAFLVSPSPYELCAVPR
Sequence of Vascular endothelial growth factor receptor 2 (P35968 whole entry): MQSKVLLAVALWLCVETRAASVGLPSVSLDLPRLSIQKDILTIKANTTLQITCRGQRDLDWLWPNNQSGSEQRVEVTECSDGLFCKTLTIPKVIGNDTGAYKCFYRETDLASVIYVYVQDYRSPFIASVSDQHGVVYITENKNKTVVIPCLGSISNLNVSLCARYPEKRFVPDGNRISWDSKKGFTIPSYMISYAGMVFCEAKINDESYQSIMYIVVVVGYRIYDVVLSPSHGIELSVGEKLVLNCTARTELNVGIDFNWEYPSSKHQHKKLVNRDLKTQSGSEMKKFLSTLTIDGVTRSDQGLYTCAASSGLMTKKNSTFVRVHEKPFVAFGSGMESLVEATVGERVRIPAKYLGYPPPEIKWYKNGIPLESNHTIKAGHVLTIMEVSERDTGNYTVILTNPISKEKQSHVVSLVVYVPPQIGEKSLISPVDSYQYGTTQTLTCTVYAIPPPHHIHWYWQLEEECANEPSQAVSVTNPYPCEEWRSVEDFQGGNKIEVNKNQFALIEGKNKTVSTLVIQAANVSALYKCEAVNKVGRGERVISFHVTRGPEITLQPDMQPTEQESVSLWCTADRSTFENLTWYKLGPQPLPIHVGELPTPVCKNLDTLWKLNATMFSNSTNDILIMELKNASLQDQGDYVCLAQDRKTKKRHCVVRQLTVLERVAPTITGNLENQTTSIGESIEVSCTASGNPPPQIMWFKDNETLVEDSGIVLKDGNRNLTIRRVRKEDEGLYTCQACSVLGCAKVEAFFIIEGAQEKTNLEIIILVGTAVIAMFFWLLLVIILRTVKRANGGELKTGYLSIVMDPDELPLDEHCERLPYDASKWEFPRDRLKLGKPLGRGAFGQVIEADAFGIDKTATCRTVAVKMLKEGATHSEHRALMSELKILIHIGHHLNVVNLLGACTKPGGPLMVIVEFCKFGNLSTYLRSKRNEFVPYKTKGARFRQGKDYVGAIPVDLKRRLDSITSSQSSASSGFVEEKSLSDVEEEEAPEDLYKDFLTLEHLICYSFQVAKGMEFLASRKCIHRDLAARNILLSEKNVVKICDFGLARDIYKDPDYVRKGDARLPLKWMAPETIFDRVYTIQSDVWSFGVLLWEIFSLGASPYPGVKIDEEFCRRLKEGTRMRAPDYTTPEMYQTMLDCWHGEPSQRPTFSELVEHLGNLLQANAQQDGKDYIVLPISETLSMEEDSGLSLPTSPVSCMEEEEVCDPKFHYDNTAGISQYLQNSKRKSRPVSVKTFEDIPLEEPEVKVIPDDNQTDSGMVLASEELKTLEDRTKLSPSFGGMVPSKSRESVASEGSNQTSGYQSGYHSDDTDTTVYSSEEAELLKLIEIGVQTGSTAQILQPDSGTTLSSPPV
Sequence of Cytochrome P450 2C9 (P11712 whole entry): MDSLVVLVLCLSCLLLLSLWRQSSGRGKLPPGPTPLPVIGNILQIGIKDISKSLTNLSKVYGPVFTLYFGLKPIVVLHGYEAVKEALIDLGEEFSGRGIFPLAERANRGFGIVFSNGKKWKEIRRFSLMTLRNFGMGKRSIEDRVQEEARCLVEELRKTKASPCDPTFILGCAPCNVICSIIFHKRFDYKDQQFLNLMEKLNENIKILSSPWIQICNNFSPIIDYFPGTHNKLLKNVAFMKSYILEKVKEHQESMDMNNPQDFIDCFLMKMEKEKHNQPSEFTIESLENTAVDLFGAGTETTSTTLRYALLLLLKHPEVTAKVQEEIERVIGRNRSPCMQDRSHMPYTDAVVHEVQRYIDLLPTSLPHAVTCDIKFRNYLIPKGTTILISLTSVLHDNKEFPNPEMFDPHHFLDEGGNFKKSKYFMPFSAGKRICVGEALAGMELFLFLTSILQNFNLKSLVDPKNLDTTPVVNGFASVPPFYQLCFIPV
Sequence of Serine/threonine-protein kinase PLK1 (P53350 whole entry): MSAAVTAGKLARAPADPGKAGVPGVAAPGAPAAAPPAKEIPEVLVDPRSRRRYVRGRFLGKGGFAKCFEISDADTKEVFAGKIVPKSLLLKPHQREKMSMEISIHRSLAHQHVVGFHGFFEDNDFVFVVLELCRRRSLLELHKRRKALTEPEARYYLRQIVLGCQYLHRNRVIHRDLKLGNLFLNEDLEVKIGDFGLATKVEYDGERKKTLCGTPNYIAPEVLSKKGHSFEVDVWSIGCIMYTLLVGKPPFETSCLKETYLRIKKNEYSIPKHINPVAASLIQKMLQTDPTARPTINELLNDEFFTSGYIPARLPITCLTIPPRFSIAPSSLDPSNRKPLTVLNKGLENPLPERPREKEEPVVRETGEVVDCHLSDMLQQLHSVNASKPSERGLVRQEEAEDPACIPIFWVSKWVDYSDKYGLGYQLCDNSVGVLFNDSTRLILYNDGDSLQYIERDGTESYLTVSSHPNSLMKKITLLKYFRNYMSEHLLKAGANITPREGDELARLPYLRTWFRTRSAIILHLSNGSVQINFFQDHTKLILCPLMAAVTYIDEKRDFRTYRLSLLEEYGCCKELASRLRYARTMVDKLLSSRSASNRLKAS
Sequence of Cytochrome P450 3A4 (P08684 whole entry): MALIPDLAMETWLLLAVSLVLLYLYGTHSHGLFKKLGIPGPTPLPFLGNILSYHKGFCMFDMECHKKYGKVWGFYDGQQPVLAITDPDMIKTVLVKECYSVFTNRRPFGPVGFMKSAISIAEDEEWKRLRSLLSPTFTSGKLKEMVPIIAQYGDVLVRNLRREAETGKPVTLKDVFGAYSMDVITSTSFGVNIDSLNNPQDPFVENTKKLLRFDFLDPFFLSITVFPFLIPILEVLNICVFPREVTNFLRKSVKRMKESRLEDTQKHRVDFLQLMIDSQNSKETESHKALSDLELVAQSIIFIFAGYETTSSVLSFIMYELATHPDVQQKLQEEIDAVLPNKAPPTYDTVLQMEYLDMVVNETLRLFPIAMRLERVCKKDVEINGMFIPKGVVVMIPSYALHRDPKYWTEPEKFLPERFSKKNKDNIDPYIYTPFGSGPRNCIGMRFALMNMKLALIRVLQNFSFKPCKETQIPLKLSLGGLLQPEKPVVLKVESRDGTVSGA
Sequence of Cytochrome P450 2C19 (P33261 whole entry): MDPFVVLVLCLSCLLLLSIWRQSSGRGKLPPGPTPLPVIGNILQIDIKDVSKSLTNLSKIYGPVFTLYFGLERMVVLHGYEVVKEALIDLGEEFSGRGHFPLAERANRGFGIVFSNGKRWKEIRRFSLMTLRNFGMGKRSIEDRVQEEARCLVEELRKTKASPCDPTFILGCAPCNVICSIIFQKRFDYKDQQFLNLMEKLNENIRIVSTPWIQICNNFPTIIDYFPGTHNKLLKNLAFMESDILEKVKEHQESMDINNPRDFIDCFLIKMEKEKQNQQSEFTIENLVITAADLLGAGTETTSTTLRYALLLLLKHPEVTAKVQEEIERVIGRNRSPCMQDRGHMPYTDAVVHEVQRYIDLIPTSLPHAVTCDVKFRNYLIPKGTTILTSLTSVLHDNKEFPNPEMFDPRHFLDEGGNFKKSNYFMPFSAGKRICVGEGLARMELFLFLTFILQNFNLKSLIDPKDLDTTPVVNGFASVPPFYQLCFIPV
Sequence of CYP2D6 (P10635 whole entry): as the sequence (P10635 whole entry) above
Sequence of Aurora kinase B (Q96GD4 whole entry): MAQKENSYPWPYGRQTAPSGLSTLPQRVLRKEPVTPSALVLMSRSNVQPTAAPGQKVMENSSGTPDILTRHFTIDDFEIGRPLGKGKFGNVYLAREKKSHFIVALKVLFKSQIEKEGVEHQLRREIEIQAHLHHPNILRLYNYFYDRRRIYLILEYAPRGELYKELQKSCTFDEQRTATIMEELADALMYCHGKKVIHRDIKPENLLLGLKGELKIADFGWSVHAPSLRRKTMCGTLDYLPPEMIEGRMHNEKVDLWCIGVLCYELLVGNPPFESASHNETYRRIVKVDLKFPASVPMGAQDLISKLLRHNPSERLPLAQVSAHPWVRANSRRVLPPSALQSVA

Structure (SMILES)	IC50 [1] [µM]	IC50 [2] [µM]	IC50 [3] [µM]	IC50 at 15 min (CYP1A2) [µM]	IC50 (Cytochrome P450 2D6) [µM]	IC50 (Cytochrome P450 3A4) [µM]	solubility [4] [µg/mL]	fraction unbound [5]	half-life at 1 µM [6] [min]	half-life at 1 µM [7] [min]	Cmax [8] [ng/mL]	IC50 [9] [µM]	IC50 [10] [µM]	IC50 [11] [µM]	IC50 (Cytochrome P450 2C9) [µM]	GI50 (MCF7) [µM]	GI50 (MDA-MB-468 [12]) [µM]	AUC at 8 h [13] [ng·h/mL]	IC50 (Cytochrome P450 2C19) [µM]	IC50 (Cytochrome P450 1A2) [µM]	further results
O=C1Nc2ccccc2/C1=C\c1ccc2c(/C=C/c3ccncc3)n[nH]c2c1	0.0024	0.035	0.034	> 10	20	1	0.21 (≈ 0.576 µM)	0.011	6	29	< 10	> 100	> 100	> 100	–	–	–	–	–	–	IC50 (Aurora kinase B): 0.024 µM
CN(C)Cc1ccc(/C=C/c2n[nH]c3cc(/C=C4/C(=O)Nc5ccccc54)ccc23)cc1	0.004	0.035	–	> 10	–	0.94	< 0.1	0.016	7	40	870	–	–	–	1.4	0.007	0.012	830	–	–	–
COc1ccc2c(c1)/C(=C\c1ccc3c(/C=C/c4ccc(N5CCN(C)CC5)nc4)n[nH]c3c1)C(=O)N2	0.0073	–	–	> 10	–	> 1	< 0.1	0.009	2	14	90	–	–	–	1.6	< 0.01	–	190	0.8	–	IC50 at 45 min (CYP2D6): > 10 µM
Cc1cc(Nc2cc(N3CCN(C)CC3)nc(Sc3ccc(NC(=O)C4CC4)cc3)n2)n[nH]1	–	–	–	–	–	–	–	–	–	–	–	–	–	–	–	–	–	–	–	–	TGI (MDA-MB-468 [14]): 73%
O=C1Nc2ccccc2[C@]12C[C@H]2c1ccc2cn[nH]c2c1 (relative stereo)	–	3.2	> 10	–	> 10	> 10	8 (≈ 29.1 µM)	0.17	49	> 60	1200	–	–	–	> 10	16	14	1620	10	> 10	–
O=C1Nc2ccccc2[C@]12C[C@H]2c1ccc2c(/C=C/c3ccncc3)n[nH]c2c1 (relative stereo)	–	0.033	1.3	–	0.7	> 1	0.4 (≈ 1.06 µM)	0.045	18	> 60	1700	> 100	> 100	> 100	0.03	0.6	0.36	2900	0.26	1.4	GI50 (MDA-MB-231): 0.68 µM; GI50 [15]: 20.3 µM; Cmax [16]: 470 ng/mL; AUC [17]: 650 ng·h/mL
CN(C)Cc1ccc(/C=C/c2n[nH]c3cc([C@@H]4C[C@@]45C(=O)Nc4ccccc45)ccc23)cc1 (relative stereo)	–	–	0.11	–	3.1	> 10	1.7 (≈ 3.91 µM)	0.053	13	> 60	2600	> 100	> 100	> 100	> 1	< 0.01	< 0.01	7200	> 1	> 10	GI50 (MDA-MB-231): < 0.01 µM; GI50 [15]: 17.8 µM; Cmax [16]: 290 ng/mL; AUC [17]: 310 ng·h/mL; Activity (Mus musculus): Non-toxic
COc1ccc2c(c1)[C@]1(C[C@H]1c1ccc3c(/C=C/c4ccc(CN(C)C)cc4)n[nH]c3c1)C(=O)N2 (relative stereo)	–	0.019	0.91	–	> 10	> 1	–	–	–	–	–	–	–	–	0.85	< 0.001	0.01	–	0.75	> 10	GI50 (MDA-MB-231): < 0.01 µM; GI50 [15]: 6.4 µM; Cmax [16]: 350 ng/mL; AUC [17]: 730 ng·h/mL; Activity (Mus musculus): Non-toxic
